Consider six compounds from PMC9560598 (PLoS Pathogens, 2022).

Experiment [1] relates to encapsulated WT B. anthracis Ames bacilli. The settings on record: for killing: encapsulated WT Ames bacilli, 2 h.
Experiment [2] deals with non-encapsulated Sterne strain of B. anthracis. The following applies: cited from earlier work.
Experiment [3] is classed as binding, Bacillus anthracis. The settings on record: n = 3.
For experiment [4], the system named is encapsulated WT B. anthracis Ames bacilli. The experiment is classed as cell-based, Bacillus anthracis.
Experiment [5] has as its system encapsulated killed WT B. anthracis bacilli. The experiment is classed as cell-based, Bacillus anthracis.

Several values for one entry are separate records, joined by “and”; a condition that tells them apart may be missing. Equal values may be shown once. Read-outs that look alike come from different tables or passages of the source. Bridge positions count the residues as written; N and C are the ends. Ends that are not written are not given here. Peptide text beside a SMILES is read from it.

Consider `CC[C@H](C)[C@@H]1NC(=O)[C@H](CCCCN)NC(=O)[C@H]([C@@H](C)O)NC(=O)[C@H](Cc2ccccc2)NC(=O)[C@H]([C@@H](C)CC)NC(=O)[C@@H]2CCCN2C(=O)[C@@H]2CSSC[C@@H](C(=O)N[C@@H](CCCCN)C(=O)O)NC(=O)[C@@H]3CSSC[C@H](NC(=O)[C@H](CC(N)=O)NC(=O)[C@H](Cc4ccc(O)cc4)NC(=O)[C@H](Cc4c[nH]cn4)NC(=O)[C@@H](N)CC(=O)O)C(=O)N[C@@H](C(C)C)C(=O)N[C@@H](CO)C(=O)N[C@@H](CO)C(=O)NCC(=O)NCC(=O)N[C@@H](CCC(N)=O)C(=O)N[C@@H](CSSC[C@H](NC(=O)[C@H]([C@@H](C)O)NC(=O)CNC(=O)[C@H](CCC(N)=O)NC1=O)C(=O)N[C@@H](Cc1ccc(O)cc1)C(=O)N[C@@H](CCCNC(=N)N)C(=O)NCC(=O)N[C@@H](CCCCN)C(=O)N[C@@H](C)C(=O)N[C@@H](CCCCN)C(=O)N3)C(=O)N[C@@H](CC(C)C)C(=O)N[C@@H](Cc1ccc(O)cc1)C(=O)N[C@@H](CO)C(=O)N[C@@H](C)C(=O)N2` [HBD-1] (H-DHYNCVSSGGQCLYSACPIFTKIQGTCYRGKAKCCK-OH; disulfide 5-34, 12-27, 17-35 (inferred); N-terminus and C-terminus assumed), for which the “% of 0 μg/ml Control, Mean” value in experiment [1] stood at 59.1%. For the same compound, the killing in experiment [1] (20 μg/ml) came to 41%. Further, the “Killing of the non-encapsulated Sterne strain” value in experiment [2] is “could not”.

As for “GIGDPVTCLKSGAICHPVFCPRRYKQIGTCGLPGTKCCKKP (disulfide 8-37, 15-30, 20-38 (inferred)) [HBD-2]”, the “Binding to purified capsule (shift in electrophoretic mobility towards the cathode)” value in experiment [3] is on record as “bound to capsule”. For the same compound, the “% of 0 μg/ml Control, Mean” value in experiment [1] is 34.5% and 26.0%. In addition, the killing in experiment [1] (20 μg/ml) came to 65%. Moreover, in experiment [2], the “Bactericidal activity against the Sterne strain” value was “modest bactericidal activity” and the “Killing of the non-encapsulated Sterne strain” value is “could not”.

As to “GIINTLQKYYCRVRGGRCAVLSCLPKEEQIGKCSTRGRKCCRRKK (disulfide 11-40, 18-33, 23-41 (inferred)) [HBD-3]”, in experiment [4], the “Localisation of HBD-3 on bacilli” value is “only on the outer surface of the capsule”. For the same compound, the “Binding to purified capsule (shift in electrophoretic mobility towards the cathode)” value in experiment [3] is given as “bound to capsule”. Besides, in experiment [5], the “% reduction of MFI” value was 29.6639% and 31.2268% and 35.1463% and 34.7672%; the “% reduction of MFI, avg” value worked out at 32.7011%; the “mean fluorescence intensity (MFI)” value is 706.28 and 766.2 and 635.97 and 635.34 and 496.77 and 526.94 and 412.45 and 414.45; the “mean fluorescence intensity (MFI), avg” value was 685.947 and 462.653. Besides, the “Concentrations at which bactericidal activity (significant killing) was observed” value in experiment [1] was 0.2 to 20 µg/mL. In experiment [1] (0.2 μg/ml), this compound displayed a killing of 58%. The compound also yielded a killing in experiment [1] (20 μg/ml) of 71%. The “Killing of the non-encapsulated Sterne strain” value in experiment [2] is on record as “could kill”.

Consider Melittin, for which the “Concentrations at which bactericidal activity (significant killing) was observed” value in experiment [1] lay in the range of 0.1 to 100 µg/mL.

Consider Nisin, for which the “Concentrations at which bactericidal activity (significant killing) was observed” value in experiment [1] lay in the range of 0.1 to 100 µg/mL.

Consider Polymyxin B, for which, in experiment [1], the “Concentrations at which bactericidal activity (significant killing) was observed” value was 1 to 100 µg/mL.
